In PMC10790228 (Journal of medical virology, 2022):

Tests used:
wild-type HIV-2 = experiment: Anti-HIV-2 activity in MT-4 cells, MTT method; format: cell-based; settings: read-out: EC50 HIV-2
[1] = biological target: binding of CPSF6 to CA hexamer; experiment: SPR-based competition assay with CPSF6; parameters: species or system HIV-1; settings: read-out: IC50 inhibition of CPSF6 binding to CA hexamer
HIV-1 NL4.3 virus = experiment: Single-round infection assay, early and late stage; format: cell-based; settings: compound at 1 μM, average of 3 replicates
HIV-1 CA hexamer = settings: read-out: KD Hexamer; SPR, average of at least 3 replicates
[2] = human, microsomes
HIV-1 = settings: cited from earlier work
[3] = cited from earlier work
[4] = Metabolic stability in human liver microsomes; settings: HLM, 0.5 mg protein/mL; for Remaining (NCF = 60min): no co-factor (no NADPH)

Compound	EC50 (wild-type HIV-2) [nM]	IC50 [1] [nM]	Infection (%) Early-stage (HIV-1 NL4.3 virus) [%]	Infection (%) Late-stage (HIV-1 NL4.3 virus) [%]	CC50 (MT-4 cells) [nM]	Kd (HIV-1 CA hexamer) [nM]	CLint(mic) [2] [µL/min/mg]	EC50 (HIV-1; read-out: anti-HIV-1 potency EC50) [nM]	metabolic stability T1/2 [3] [s]	T1/2 [4] [s]	Remaining (T = 60min) [4] [%]	Remaining (NCF = 60min) [4] [%]	CLint(liver) ([4]; scaled from CLint(mic)) [mL/min/kg]	anti-HIV-1 activity (HIV-1)
Cc1[nH]c2ccccc2c1CC(=O)N[C@@H](Cc1ccccc1)C(=O)N(C)c1ccccc1 [PF-74]	3790 ± 390	26.6	0.07 ± 0.01	58.19 ± 12.54	> 294000	47 ± 0.6	2114.6	520 to 900	30 to 78	42	0.0	106.1	1903.1	
C[C@]12CC[C@H]3[C@@H](CCC4=CC(=O)CC[C@@]43C)[C@@H]1CC[C@@H]2O [Testosterone]											4.8	95.8		
CC(C)(C#Cc1ccc(-c2ccc(Cl)c3c(NS(C)(=O)=O)nn(CC(F)(F)F)c23)c([C@H](Cc2cc(F)cc(F)c2)NC(=O)Cn2nc(C(F)(F)F)c3c2C(F)(F)[C@@H]2C[C@H]32)n1)S(C)(=O)=O [GS-6207]														picomolar
